Measurements taken from PubChem BioAssay AID248 (DTP/NCI, 2004).
Toxic doses and inconclusive results are not listed. Rule as the data show it: active = T/C of 150% or more; inactive = T/C below 125%.

System: L1210 leukemia ip in BDF1 mice, survival T/C
Assay: NCI In Vivo Anticancer Drug Screen. Data for tumor model L1210 Leukemia (intraperitoneal) in B6D2F1 (BDF1) mice
Settings: endpoint: mean survival time, higher = longer survival
Procedure, shortened: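 Mice bearing the transplanted tumor received compound or vehicle. Survival of the treated group was divided by that of the vehicle-treated control group to give the ratio.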

[1] = dose: 100.0 mg/kg/injection, schedule: Q01DX001 (ip), vehicle: saline with Tween-80
[2] = dose: 100.0 mg/kg/injection, schedule: Q01DX009 (ip), vehicle: saline with Tween-80
[3] = dose: 100.0 mg/kg/injection, schedule: Q04DX003 (ip), vehicle: saline with Tween-80
[4] = dose: 200.0 mg/kg/injection, schedule: Q01DX001 (ip), vehicle: saline with Tween-80
[5] = dose: 200.0 mg/kg/injection, schedule: Q01DX009 (ip), vehicle: saline with Tween-80
[6] = dose: 200.0 mg/kg/injection, schedule: Q04DX003 (ip), vehicle: saline with Tween-80
[7] = dose: 400.0 mg/kg/injection, schedule: Q01DX001 (ip), vehicle: saline with Tween-80
[8] = dose: 400.0 mg/kg/injection, schedule: Q01DX009 (ip), vehicle: saline with Tween-80
[9] = dose: 400.0 mg/kg/injection, schedule: Q04DX003 (ip), vehicle: saline with Tween-80
[10] = dose: 100.0 mg/kg/injection, schedule: Q01DX001 (ip), vehicle: saline
[11] = dose: 200.0 mg/kg/injection, schedule: Q01DX001 (ip), vehicle: saline
[12] = dose: 400.0 mg/kg/injection, schedule: Q01DX001 (ip), vehicle: saline
[13] = dose: 100.0 mg/kg/injection, schedule: Q01DX009 (ip), vehicle: acetone
[14] = dose: 100.0 mg/kg/injection, schedule: Q04DX003 (ip), vehicle: saline
[15] = dose: 100.0 mg/kg/injection, schedule: Q04DX002 (ip), vehicle: Klucel (hydroxypropylcellulose) (HPC)

Measured: T/C

CN(C)N=Nc1ccc(C(F)(F)F)cc1
inactive: dose: 50.0 mg/kg/injection, schedule: Q01DX001 (ip), vehicle: saline with Tween-80 97 % of control | dose: 50.0 mg/kg/injection, schedule: Q01DX009 (ip), vehicle: saline with Tween-80 94 % of control | dose: 50.0 mg/kg/injection, schedule: Q04DX003 (ip), vehicle: saline with Tween-80 98 % of control | [1] 103 % of control | [2] 94 % of control | [3] 98 % of control | [4] 105 % of control | [5] 97 % of control | [6] 101 % of control | [7] 101 % of control | [8] 98 % of control | [9] 98 % of control

CCC(O)C[As](=O)(O)c1ccccc1 (stereo not given)
inactive: dose: 1.56 mg/kg/injection, schedule: Q04DX003 (ip), vehicle: saline 94 % of control | dose: 3.13 mg/kg/injection, schedule: Q04DX003 (ip), vehicle: saline 105 % of control | dose: 6.25 mg/kg/injection, schedule: Q04DX003 (ip), vehicle: saline 96 % of control

Nc1ncnc2c1ncn2C1COC(CO)C1O (stereo not given)
inactive: [10] 103 % of control | [11] 107 % of control | [12] 107 % of control

O=[N+]([O-])c1ccc2[nH]ccc2c1
inactive: [10] 98 % of control | [11] 104 % of control | [12] 102 % of control

CC(O)C[As](=O)(O)c1ccccc1 (stereo not given)
inactive: dose: 12.5 mg/kg/injection, schedule: Q04DX002 (ip), vehicle: saline 103 % of control | dose: 25.0 mg/kg/injection, schedule: Q04DX002 (ip), vehicle: saline 100 % of control

CCCCCCCCCOC(=O)NC1c2ccccc2Oc2ccccc21
inactive: [13] 93 % of control | [14] 98 % of control | dose: 200.0 mg/kg/injection, schedule: Q04DX003 (ip), vehicle: saline 98 % of control | dose: 400.0 mg/kg/injection, schedule: Q04DX003 (ip), vehicle: saline 88 % of control

CCCCC(CCCC)C(=O)O
inactive: dose: 100.0 mg/kg/injection, schedule: Q01DX001 (ip), vehicle: carboxymethylcellulose (CMC) 111 % of control | dose: 200.0 mg/kg/injection, schedule: Q01DX001 (ip), vehicle: carboxymethylcellulose (CMC) 92 % of control | dose: 400.0 mg/kg/injection, schedule: Q01DX001 (ip), vehicle: carboxymethylcellulose (CMC) 101 % of control

Cc1ccc(S(=O)(=O)Nc2ccc(C(=O)Cl)cc2)cc1
inactive: dose: 100.0 mg/kg/injection, schedule: Q04DX003 (ip), vehicle: gum acacia 95 % of control | dose: 200.0 mg/kg/injection, schedule: Q04DX003 (ip), vehicle: gum acacia 106 % of control | dose: 400.0 mg/kg/injection, schedule: Q04DX003 (ip), vehicle: gum acacia 90 % of control

CCCCNC(=O)c1ccccc1-c1ccccc1C(=O)NCCCC
inactive: dose: 100.0 mg/kg/injection, schedule: Q01DX001 (ip), vehicle: other 105 % of control | dose: 200.0 mg/kg/injection, schedule: Q01DX001 (ip), vehicle: other 97 % of control

CS(=O)(=O)OCCCN(CCCOS(C)(=O)=O)c1ccc(C=Nc2ccc(-c3csc(COc4ccc(Cl)cc4)n3)cc2)cc1
inactive: [2] 97 % of control | [5] 94 % of control | [8] 94 % of control

c1ccc2c(c1)C[N+](=C1CCCCC1)Cc1ccccc1-2
inactive: dose: 25.0 mg/kg/injection, schedule: Q01DX009 (ip), vehicle: saline 103 % of control | dose: 50.0 mg/kg/injection, schedule: Q01DX009 (ip), vehicle: saline 106 % of control | dose: 100.0 mg/kg/injection, schedule: Q01DX009 (ip), vehicle: saline 101 % of control | [14] 99 % of control

O=C(O)c1ccc([N+](=O)[O-])c(P(=O)(O)O)c1
inactive: dose: 75.0 mg/kg/injection, schedule: Q01DX001 (ip), vehicle: saline 96 % of control | dose: 150.0 mg/kg/injection, schedule: Q01DX001 (ip), vehicle: saline 109 % of control

CC(C)NP(=O)(NC(C)C)OC1CC(C)(C)N(O)C(C)(C)C1
inactive: dose: 6.25 mg/kg/injection, schedule: Q01DX001 (ip), vehicle: water 92 % of control | dose: 12.5 mg/kg/injection, schedule: Q01DX001 (ip), vehicle: water 96 % of control | dose: 25.0 mg/kg/injection, schedule: Q01DX001 (ip), vehicle: water 99 % of control | dose: 50.0 mg/kg/injection, schedule: Q01DX001 (ip), vehicle: water 94 % of control

ClC1(Cl)C2CC3C4C=CC(C4)C3C21 (stereo not given)
inactive: dose: 100.0 mg/kg/injection, schedule: Q01DX001 (ip), vehicle: Klucel (hydroxypropylcellulose) (HPC) 108 % of control | dose: 200.0 mg/kg/injection, schedule: Q01DX001 (ip), vehicle: Klucel (hydroxypropylcellulose) (HPC) 100 % of control

O=C(CCCC(=O)NNC(=S)NC1CCCCC1)NNC(=S)NC1CCCCC1
inactive: dose: 50.0 mg/kg/injection, schedule: Q01DX001 (ip), vehicle: saline 96 % of control | [10] 96 % of control | [11] 93 % of control

COc1cccc(OC)c1C1(O)c2ccccc2-c2ccccc21
inactive: [3] 98 % of control | [6] 95 % of control | [9] 95 % of control

O=C1c2ccccc2CCCC12OC2c1ccccc1 (stereo not given)
inactive: dose: 75.0 mg/kg/injection, schedule: Q04DX003 (ip), vehicle: Klucel (hydroxypropylcellulose) (HPC) 92 % of control | dose: 150.0 mg/kg/injection, schedule: Q04DX003 (ip), vehicle: Klucel (hydroxypropylcellulose) (HPC) 93 % of control | dose: 300.0 mg/kg/injection, schedule: Q04DX003 (ip), vehicle: Klucel (hydroxypropylcellulose) (HPC) 95 % of control

CC(C)N(C)/N=N/N(C)C(C)C
inactive: [1] 101 % of control | [4] 103 % of control | [7] 117 % of control

CN(C(=O)OCc1ccccc1)c1ccc(C(=O)NC(CC(=O)O)CC(=O)O)cc1
inactive: [10] 88 % of control | [11] 96 % of control | [12] 90 % of control

Cc1cnc(N)c([N+](=O)[O-])c1
inactive: dose: 100.0 mg/kg/injection, schedule: Q01DX005 (ip), vehicle: Klucel (hydroxypropylcellulose) (HPC) 94 % of control | dose: 100.0 mg/kg/injection, schedule: Q01DX009 (ip), vehicle: Klucel (hydroxypropylcellulose) (HPC) 97 % of control | [15] 96 % of control | dose: 200.0 mg/kg/injection, schedule: Q01DX005 (ip), vehicle: Klucel (hydroxypropylcellulose) (HPC) 94 % of control | dose: 200.0 mg/kg/injection, schedule: Q01DX009 (ip), vehicle: Klucel (hydroxypropylcellulose) (HPC) 97 % of control | dose: 200.0 mg/kg/injection, schedule: Q04DX002 (ip), vehicle: Klucel (hydroxypropylcellulose) (HPC) 100 % of control | dose: 400.0 mg/kg/injection, schedule: Q01DX005 (ip), vehicle: Klucel (hydroxypropylcellulose) (HPC) 94 % of control | dose: 400.0 mg/kg/injection, schedule: Q01DX009 (ip), vehicle: Klucel (hydroxypropylcellulose) (HPC) 91 % of control | dose: 400.0 mg/kg/injection, schedule: Q04DX002 (ip), vehicle: Klucel (hydroxypropylcellulose) (HPC) 93 % of control

CCCC(=O)N1CCCCC1
inactive: [15] 88 % of control

COC(=O)/C=C(\C)Nc1ccc(NC(C)=O)cc1
inactive: dose: 25.0 mg/kg/injection, schedule: Q01DX009 (ip), vehicle: acetone 101 % of control | dose: 50.0 mg/kg/injection, schedule: Q01DX009 (ip), vehicle: acetone 101 % of control | [13] 94 % of control | dose: 100.0 mg/kg/injection, schedule: Q04DX003 (ip), vehicle: acetone 94 % of control | dose: 200.0 mg/kg/injection, schedule: Q04DX003 (ip), vehicle: acetone 96 % of control
